Reference: US20100048641A1, “Use of Adenosine A1 and/or Dual A1/2ab Agonists for Production of Medicaments for Treating Diseases” (BAYER HEALTHCARE AG LAW AND PATENTS,PATENTS AND LICENSING, priority 2006, published 2010)
Where a name gives a salt, the structure may show the parent alone.

Legend:
adenosine A1 receptor = molecular target: T1, adenosine A1 receptor (Homo sapiens, UniProt P30542); experiment: Indirect determination of adenosine agonism by gene expression (luciferase, cAMP-dependent promoter), A1 cells; type: cell-based; details: CHO cells stably transfected with A1 receptor cDNA; 1 μM forskolin; concentration at which 50% of the luciferase answer is inhibited
T1 construct: expressed in transfected cells; host or cells: CHO (Chinese Hamster Ovary) cells, stably transfected
T1 sequence (P30542 1-326): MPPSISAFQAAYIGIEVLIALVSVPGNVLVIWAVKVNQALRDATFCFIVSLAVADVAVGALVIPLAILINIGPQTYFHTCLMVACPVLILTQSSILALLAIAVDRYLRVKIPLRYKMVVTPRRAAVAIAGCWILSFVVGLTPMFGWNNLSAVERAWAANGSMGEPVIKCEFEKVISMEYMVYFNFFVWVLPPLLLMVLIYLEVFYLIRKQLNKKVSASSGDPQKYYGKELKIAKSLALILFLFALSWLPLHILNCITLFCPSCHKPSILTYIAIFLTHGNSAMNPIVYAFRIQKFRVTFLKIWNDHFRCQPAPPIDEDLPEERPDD
Text: (§1) Indirect Determination of the Adenosine Agonism by Way of Gene Expression
(§2) Cells of the CHO (Chinese Hamster Ovary) permanent cell line are transfected stably with the cDNA for the adenosine receptor subtypes A1, A2a and A2b. The adenosine A1 receptors are coupled to the adenylate cyclase by way of Gi proteins, while the adenosine A2a and A2b receptors are coupled by way of Gs proteins. In correspondence with this, the formation of cAMP in the cell is inhibited or stimulated, respectively. After that, expression of the luciferase is modulated by way of a cAMP-dependent promoter. The luciferase test is optimized, with the aim of high sensitivity and reproducibility, low variance and good suitability for implementation on a robot system, by varying several test parameters, such as cell density, duration of the growth phase and the test incubation, forskolin concentration and medium composition. The following test protocol is used for pharmacologically characterizing cells and for the robot-assisted substance screening:
(§3) The stock cultures are grown, at 37° C. and under 5% CO2, in DMEM/F12 medium containing 10% FCS (foetal calf serum) and in each case split 1:10 after 2-3 days. The test cultures are seeded in 384-well plates with 2000 cells per well and grown at 37° C. for approx. 48 hours. The medium is then replaced with a physiological sodium chloride solution (130 mM sodium chloride, 5 mM potassium chloride, 2 mM calcium chloride, 20 mM HEPES, 1 mM magnesium chloride hexahydrate, 5 mM sodium bicarbonate, pH 7.4). The substances to be tested, which are dissolved in DMSO, are pipetted into the test cultures (maximum final concentration of DMSO in the test mixture: 0.5%) in a dilution series of from 1.1×10^−11M to 3×10^−6M (final concentration). 10 minutes later, forskolin is added to the A1 cells and all the cultures are subsequently incubated at 37° C. for four hours. After that, 35 μl of a solution which is composed of 50% lysis reagent (30 mM disodium hydrogenphosphate, 10% glycerol, 3% TritonX100, 25 mM TrisHCl, 2 mM dithiotreitol (DTT), pH 7.8) and 50% luciferase substrate solution (2.5 mM ATP, 0.5 mM luciferin, 0.1 mM coenzyme A, 10 mM tricine, 1.35 mM magnesium sulfate, 15 mM DTT, pH 7.8) are added to the test cultures, which are shaken for approx. 1 minute and the luciferase activity is measured using a camera system. The EC50 values are determined, i.e., the concentrations at which 50% of the luciferase answer is inhibited in the case of the A1 cell, and, respectively, 50% of the maximum stimulation with the corresponding substance is achieved in the case of the A2b and A2a cells. […] Pharmacol., 357 (1998), 1-9).
(§4) Table 1 below lists the EC50 values of representative working examples of compounds of the formula (IA) for the receptor stimulation on adenosine A1, A2a and A2b receptor subtypes: […]

adenosine A2a receptor = molecular target: T2, adenosine A2a receptor (Homo sapiens, UniProt P29274); experiment: Indirect determination of adenosine agonism by gene expression (luciferase, cAMP-dependent promoter), A2a cells; type: cell-based; details: CHO cells stably transfected with A2a receptor cDNA; 50% of maximum stimulation of luciferase
T2 construct: expressed in transfected cells; host or cells: CHO (Chinese Hamster Ovary) cells, stably transfected
T2 sequence (P29274 whole entry): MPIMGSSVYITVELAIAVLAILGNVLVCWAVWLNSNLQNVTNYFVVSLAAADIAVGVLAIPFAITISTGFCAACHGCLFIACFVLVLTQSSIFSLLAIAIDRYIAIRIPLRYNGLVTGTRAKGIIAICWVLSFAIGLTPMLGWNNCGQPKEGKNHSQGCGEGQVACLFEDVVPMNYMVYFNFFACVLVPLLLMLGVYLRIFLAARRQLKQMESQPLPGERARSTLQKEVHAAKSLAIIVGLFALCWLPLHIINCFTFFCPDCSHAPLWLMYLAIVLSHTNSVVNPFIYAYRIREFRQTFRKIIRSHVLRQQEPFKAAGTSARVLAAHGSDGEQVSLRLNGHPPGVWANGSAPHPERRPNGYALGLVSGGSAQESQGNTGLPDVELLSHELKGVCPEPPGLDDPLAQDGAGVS
Text: as §1, §2, §3, §4

adenosine A2b receptor = molecular target: T3, adenosine A2b receptor (Homo sapiens, UniProt P29275); experiment: Indirect determination of adenosine agonism by gene expression (luciferase, cAMP-dependent promoter), A2b cells; type: cell-based; details: CHO cells stably transfected with A2b receptor cDNA; 50% of maximum stimulation of luciferase
T3 construct: expressed in transfected cells; host or cells: CHO (Chinese Hamster Ovary) cells, stably transfected
T3 sequence (P29275 1-332): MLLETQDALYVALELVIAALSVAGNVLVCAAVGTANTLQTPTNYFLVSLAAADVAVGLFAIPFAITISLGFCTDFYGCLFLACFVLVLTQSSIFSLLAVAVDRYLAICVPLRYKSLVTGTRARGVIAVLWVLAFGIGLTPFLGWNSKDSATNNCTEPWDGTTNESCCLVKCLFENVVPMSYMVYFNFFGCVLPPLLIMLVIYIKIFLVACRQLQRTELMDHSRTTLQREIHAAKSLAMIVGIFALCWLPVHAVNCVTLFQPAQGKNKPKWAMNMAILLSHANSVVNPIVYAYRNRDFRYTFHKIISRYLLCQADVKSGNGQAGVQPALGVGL
Text: as §1, §2, §3, §4

Row | Compound | melting point | EC50 (adenosine A1 receptor) | EC50 (adenosine A2a receptor) | EC50 (adenosine A2b receptor)
1 | N#Cc1c(N)nc(SCc2csc(Nc3cccc(Cl)c3)n2)c(C#N)c1-c1ccc(OCC(O)CO)cc1 (stereo not shown) [Example 1, 2-Amino-6-[({2-[(3-chlorophenyl)amino]-1,3-thiazol-4-yl}methyl)thio]-4-[4-(2,3-dihydroxypropoxy)phenyl]pyridine-3,5-dicarbonitrile] | 192 to 194 °C |  |  | 
2 | Cc1cccc(Nc2nc(CSc3nc(N)c(C#N)c(-c4ccc(OCC(O)CO)cc4)c3C#N)cs2)c1 (stereo not shown) [Example 2] |  | 9.9 nM | 747 nM | 6.1 nM
3 | N#Cc1c(N)nc(SCc2csc(Nc3ccc(F)cc3)n2)c(C#N)c1-c1ccc(OCCO)cc1 [Example 8, 2-Amino-6-[({2-[(4-fluorophenyl)amino]-1,3-thiazol-4-yl}methyl)thio]-4-[4-(2-hydroxyethoxy)-phenyl]pyridine-3,5-dicarbonitrile] |  | 1 nM | 300 nM | 1 nM
4 | N#Cc1c(N)nc(SCc2csc(Nc3ccc(F)cc3F)n2)c(C#N)c1-c1ccc(OCCO)cc1 [Example 10, 2-Amino-6-[({2-[(2,4-difluorophenyl)amino]-1,3-thiazol-4-yl}methyl)thio]-4-[4-(2-hydroxyethoxy)phenyl]pyridine-3,5-dicarbonitrile] |  | 2 nM | > 200 nM | 1 nM
5 | N#Cc1ccc(Nc2nc(CSc3nc(N)c(C#N)c(-c4ccc(OCCO)cc4)c3C#N)cs2)cc1 [Example 21] |  | 0.7 nM | 103 nM | 0.5 nM
6 | COCCOc1ccc(-c2c(C#N)c(N)nc(SCc3csc(Nc4ccc(C)cc4)n3)c2C#N)cc1 [Example 26] |  | 23 nM | > 3000 nM | 74 nM
7 | N#Cc1c(N)nc(SCc2csc(Nc3ccc(F)cc3)n2)c(C#N)c1-c1ccc(OCCN)cc1 [Example 70, 2-Amino-4-[4-(2-aminoethoxy)phenyl]-6-[({2-[(4-fluorophenyl)amino]-1,3-thiazol-4-yl}methyl)-thio]pyridine-3,5-dicarbonitrile hydrochloride] |  | 2.3 nM | > 3000 nM | 28 nM

Now from value to compound:

Row | melting point | EC50 (adenosine A1 receptor) | EC50 (adenosine A2a receptor) | EC50 (adenosine A2b receptor) | Compound
8 |  | 0.2 nM | 236 nM | 0.1 nM | N#Cc1c(N)nc(SCc2csc(Nc3ccc(C(=O)O)cc3)n2)c(C#N)c1-c1ccc(OCCO)cc1 [Example 13, 4-({4-[({6-Amino-3,5-dicyano-4-[4-(2-hydroxyethoxy)phenyl]pyridin-2-yl}thio)methyl]-1,3-thiazol-2-yl}amino)benzoic acid]
9 |  | 0.4 nM | 142 nM | 0.3 nM | N#Cc1c(N)nc(SCc2csc(Nc3cccc(Cl)c3)n2)c(C#N)c1-c1ccc(OC[C@@H](O)CO)cc1 [Example 35]
10 |  | 0.3 nM | 1200 nM | 1.4 nM | COc1cc(Nc2nc(CSc3nc(N)c(C#N)c(-c4ccc(OC[C@@H](O)CO)cc4)c3C#N)cs2)ccc1F [Example 39]
11 |  | 0.6 nM | 140 nM | 0.3 nM | N#Cc1c(N)nc(SCc2csc(Nc3cccc(F)c3)n2)c(C#N)c1-c1ccc(OC[C@@H](O)CO)cc1 [Example 44]
12 |  | 0.4 nM | 140 nM | 0.1 nM | N#Cc1c(N)nc(SCc2csc(Nc3ccc(F)c(Cl)c3)n2)c(C#N)c1-c1ccc(OC[C@@H](O)CO)cc1 [Example 48]
